Results on three molecules are retold here after BindingDB's records for doi:10.1021/jm030317k (Astrazeneca, 2004).

Where only a bound is given, the exact number is not on record here.

For assay [1], the target named is Fibroblast growth factor receptor 1 (Homo sapiens, UniProt P11362). The assay can be described thus: In Vitro Src Kinase Inhibition Test. An excerpt: (§1) This assay determines the ability of test compounds to inhibit Src kinase activity that catalyzes the transfer of the terminal phosphate to the immobilized poly (Glu,Tyr) substrate detected using anti-phosphotyrosine monoclonal antibody conjugated to alkaline phosphatase. IC50 values for compound enzyme inhibition were obtained using KC3 Kineticalc software (Bio-Tek Instruments) following subtraction of the blank values.

Assay [2] addresses Vascular endothelial growth factor receptor 1 (Homo sapiens, UniProt P17948). The assay can be described thus: In Vitro Src Kinase Inhibition Test.
Excerpt: as §1

For assay [3], the target named is Proto-oncogene tyrosine-protein kinase Src (Homo sapiens, UniProt P12931). The assay can be described thus: In Vitro Src Kinase Inhibition Test. The settings on record: pH 7.4; 22 °C.
Excerpt: as §1

The target of assay [4] is T1, Vascular endothelial growth factor receptor 2 (Homo sapiens, UniProt P35968). The assay can be described thus: VEGF-R Kinase Inhibition Assay. The settings on record: 25 °C. Here is the method: An ELISA assay was used to determine the ability of inhibitor to inhibit VEGF-RRTK activity. The compounds were incubated with enzyme 20 min at room temperature, with 2uM ATP in 96-well plates coated with a poly(Glu, Ala, Tyr) 6:3:1 random copolymer substrate. Phosphorylated tyrosine was then detected by sequential in cubation with anti-phosphotyrosine antibody. IC50 data were interpolated by nonlinear regression using Microcal Origin software.

For assay [5], the target named is T1, Vascular endothelial growth factor receptor 2. The assay can be described thus: In Vitro Src Kinase Inhibition Test.
Excerpt: as §1

T1 sequence (P35968 whole entry): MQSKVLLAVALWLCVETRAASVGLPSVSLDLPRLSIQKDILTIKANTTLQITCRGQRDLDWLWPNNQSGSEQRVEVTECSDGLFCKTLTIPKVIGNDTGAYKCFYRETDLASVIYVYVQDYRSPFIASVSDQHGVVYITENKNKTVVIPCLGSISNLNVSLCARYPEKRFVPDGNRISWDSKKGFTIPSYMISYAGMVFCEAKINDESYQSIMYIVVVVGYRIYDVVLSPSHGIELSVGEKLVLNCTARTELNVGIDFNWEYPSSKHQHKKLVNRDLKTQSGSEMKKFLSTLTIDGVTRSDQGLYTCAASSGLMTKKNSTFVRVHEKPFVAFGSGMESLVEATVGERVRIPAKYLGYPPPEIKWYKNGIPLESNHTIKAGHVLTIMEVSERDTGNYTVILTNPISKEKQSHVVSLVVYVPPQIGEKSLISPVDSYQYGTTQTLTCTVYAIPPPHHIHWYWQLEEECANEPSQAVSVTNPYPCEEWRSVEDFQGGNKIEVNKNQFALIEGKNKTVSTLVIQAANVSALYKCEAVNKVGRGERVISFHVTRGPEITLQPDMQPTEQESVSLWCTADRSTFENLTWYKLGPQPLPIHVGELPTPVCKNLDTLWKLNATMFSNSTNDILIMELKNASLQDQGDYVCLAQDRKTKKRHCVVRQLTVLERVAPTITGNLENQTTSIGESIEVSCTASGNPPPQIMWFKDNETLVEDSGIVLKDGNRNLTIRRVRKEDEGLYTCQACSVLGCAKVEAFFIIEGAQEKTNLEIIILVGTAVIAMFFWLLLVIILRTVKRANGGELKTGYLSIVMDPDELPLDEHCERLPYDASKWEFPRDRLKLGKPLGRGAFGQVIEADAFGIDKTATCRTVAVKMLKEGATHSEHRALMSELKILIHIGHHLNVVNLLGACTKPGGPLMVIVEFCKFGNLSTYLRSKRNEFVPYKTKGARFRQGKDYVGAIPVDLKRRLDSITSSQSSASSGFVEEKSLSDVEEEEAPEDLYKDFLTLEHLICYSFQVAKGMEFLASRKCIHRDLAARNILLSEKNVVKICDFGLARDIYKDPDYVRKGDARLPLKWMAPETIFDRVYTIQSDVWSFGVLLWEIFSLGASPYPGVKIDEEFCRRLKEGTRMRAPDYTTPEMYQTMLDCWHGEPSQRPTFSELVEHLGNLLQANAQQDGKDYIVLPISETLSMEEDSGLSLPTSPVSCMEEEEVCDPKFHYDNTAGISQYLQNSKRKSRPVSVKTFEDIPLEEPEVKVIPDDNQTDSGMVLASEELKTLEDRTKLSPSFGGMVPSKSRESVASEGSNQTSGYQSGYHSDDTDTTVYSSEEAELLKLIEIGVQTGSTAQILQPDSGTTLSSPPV
Sequence of Vascular endothelial growth factor receptor 1 (P17948 whole entry): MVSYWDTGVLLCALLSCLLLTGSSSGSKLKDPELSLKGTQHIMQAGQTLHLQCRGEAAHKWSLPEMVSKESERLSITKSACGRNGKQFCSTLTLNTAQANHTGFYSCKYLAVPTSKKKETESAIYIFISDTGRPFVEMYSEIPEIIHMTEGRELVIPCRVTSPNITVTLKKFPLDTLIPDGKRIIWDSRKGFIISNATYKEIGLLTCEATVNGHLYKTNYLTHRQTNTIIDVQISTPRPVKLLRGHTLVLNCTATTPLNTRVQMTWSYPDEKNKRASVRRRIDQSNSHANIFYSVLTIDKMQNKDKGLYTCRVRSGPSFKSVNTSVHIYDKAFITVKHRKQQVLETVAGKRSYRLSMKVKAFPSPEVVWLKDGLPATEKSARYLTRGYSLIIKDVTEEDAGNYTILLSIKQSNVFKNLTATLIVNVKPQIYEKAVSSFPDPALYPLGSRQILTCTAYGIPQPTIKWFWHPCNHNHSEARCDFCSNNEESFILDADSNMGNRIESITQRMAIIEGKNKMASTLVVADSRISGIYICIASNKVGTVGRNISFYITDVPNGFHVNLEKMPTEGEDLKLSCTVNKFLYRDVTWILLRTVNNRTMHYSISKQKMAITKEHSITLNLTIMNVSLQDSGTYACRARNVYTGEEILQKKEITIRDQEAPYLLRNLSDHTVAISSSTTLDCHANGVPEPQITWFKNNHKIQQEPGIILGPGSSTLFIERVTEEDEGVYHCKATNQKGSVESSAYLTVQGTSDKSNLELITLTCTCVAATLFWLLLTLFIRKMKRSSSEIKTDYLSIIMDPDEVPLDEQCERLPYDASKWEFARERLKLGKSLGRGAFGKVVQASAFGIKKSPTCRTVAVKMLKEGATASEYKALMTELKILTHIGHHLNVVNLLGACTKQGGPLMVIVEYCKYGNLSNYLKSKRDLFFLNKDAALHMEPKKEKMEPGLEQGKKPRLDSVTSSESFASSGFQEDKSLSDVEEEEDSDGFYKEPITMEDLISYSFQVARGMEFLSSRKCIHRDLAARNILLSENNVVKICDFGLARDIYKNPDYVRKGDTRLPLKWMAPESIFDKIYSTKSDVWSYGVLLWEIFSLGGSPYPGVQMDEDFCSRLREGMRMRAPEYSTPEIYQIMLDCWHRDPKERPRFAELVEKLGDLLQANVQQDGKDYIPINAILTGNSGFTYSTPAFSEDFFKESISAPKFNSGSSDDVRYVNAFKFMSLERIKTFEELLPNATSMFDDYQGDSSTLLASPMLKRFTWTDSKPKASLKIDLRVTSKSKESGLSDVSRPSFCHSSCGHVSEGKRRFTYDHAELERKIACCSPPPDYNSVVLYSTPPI
Sequence of Proto-oncogene tyrosine-protein kinase Src (P12931 2-536 limits assumed): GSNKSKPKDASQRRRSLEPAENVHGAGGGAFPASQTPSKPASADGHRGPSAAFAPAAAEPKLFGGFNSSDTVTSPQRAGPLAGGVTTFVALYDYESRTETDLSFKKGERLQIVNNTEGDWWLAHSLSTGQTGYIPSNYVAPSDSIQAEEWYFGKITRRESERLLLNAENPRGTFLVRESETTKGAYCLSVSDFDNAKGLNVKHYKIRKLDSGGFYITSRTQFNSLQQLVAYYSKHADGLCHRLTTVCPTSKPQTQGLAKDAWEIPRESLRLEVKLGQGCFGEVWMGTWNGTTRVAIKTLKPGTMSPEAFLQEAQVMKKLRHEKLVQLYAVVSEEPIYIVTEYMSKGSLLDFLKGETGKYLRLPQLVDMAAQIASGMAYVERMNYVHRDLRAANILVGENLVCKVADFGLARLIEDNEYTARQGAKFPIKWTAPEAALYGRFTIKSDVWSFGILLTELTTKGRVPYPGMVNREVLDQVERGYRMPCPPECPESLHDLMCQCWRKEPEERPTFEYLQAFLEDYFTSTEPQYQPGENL
Sequence of Fibroblast growth factor receptor 1 (P11362 whole entry): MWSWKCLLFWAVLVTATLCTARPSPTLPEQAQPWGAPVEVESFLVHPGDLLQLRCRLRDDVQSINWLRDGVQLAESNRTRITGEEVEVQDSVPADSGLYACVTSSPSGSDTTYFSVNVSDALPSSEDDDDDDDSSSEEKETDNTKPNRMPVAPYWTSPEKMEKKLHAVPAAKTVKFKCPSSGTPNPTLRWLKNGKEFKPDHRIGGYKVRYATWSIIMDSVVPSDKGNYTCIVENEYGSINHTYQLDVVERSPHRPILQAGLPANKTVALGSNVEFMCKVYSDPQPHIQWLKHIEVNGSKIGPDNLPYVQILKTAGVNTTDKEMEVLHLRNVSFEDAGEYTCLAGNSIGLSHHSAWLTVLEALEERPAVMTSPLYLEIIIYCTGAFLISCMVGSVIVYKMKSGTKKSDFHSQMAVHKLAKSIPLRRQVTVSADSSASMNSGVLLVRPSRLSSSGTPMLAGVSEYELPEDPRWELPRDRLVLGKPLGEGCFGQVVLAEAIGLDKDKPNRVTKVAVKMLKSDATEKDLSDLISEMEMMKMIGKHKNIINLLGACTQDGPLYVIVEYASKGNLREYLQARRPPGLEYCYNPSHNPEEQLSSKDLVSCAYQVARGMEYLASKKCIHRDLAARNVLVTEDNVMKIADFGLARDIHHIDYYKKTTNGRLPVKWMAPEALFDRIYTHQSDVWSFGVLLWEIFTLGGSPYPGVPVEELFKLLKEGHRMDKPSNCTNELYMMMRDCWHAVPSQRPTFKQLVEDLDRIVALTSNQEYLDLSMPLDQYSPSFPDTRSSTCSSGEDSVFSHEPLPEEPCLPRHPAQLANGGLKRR

For the molecule `COc1cc2c(Nc3c(Cl)ccc4c3OCO4)ncnc2cc1OCc1ccnc(C#N)c1` [4-[({4-[(5-chloro-2H-1,3-benzodioxol-4-yl)amino]-6-methoxyquinazolin-7-yl}oxy)methyl]pyridine-2-carbonitrile], the IC50 in assay [1] and in assay [2] was greater than 100 µM throughout. Take `COc1ccc(Cl)c(Nc2ncnc3cc(OCC4CCN(C)CC4)c(OC)cc23)c1` [AZD0530 analogue 35]: the IC50 in assay [3] is 0.01 µM; in assay [4], 0.67 µM. On to `COc1cc2c(Nc3c(Cl)ccc4c3OCO4)ncnc2cc1OCCCN1CCCCC1` [BMCL182776 Compound 1], for which, in assay [5], half-maximal inhibition (IC50) required 21.7 µM.

Usually IC50 stands for the concentration needed to halve the response being measured. A lower IC50 goes with inhibition by little substance.
